This passage reports mortality results from patent publication US8455649B2, “Insecticidal substituted azinyl derivatives” (Dow AgroSciences, LLC, priority 2007, dated 2013).

Experiment [1] concerns Beet Armyworm (Spodoptera exigua). As to the kind of experiment: Insecticidal diet-surface test for beet armyworm. The note with it: 120 h, second-instar larvae on treated diet, 50 μg/cm^2 on diet surface, 5 days after treatment, 8 insects per treatment, read-out: LAPHEG AVG % Mortality (50 μg/cm^2). In kind it is in vivo. On the procedure: (§1) The compounds identified in Table 1 were tested against beet armyworm and corn earworm as follows:
(§2) Insecticidal Test for Corn Earworm (Helicoverpa zea) and Beet Armyworm (Spodoptera exigua).
(§3) To prepare test solution, the test compound was formulated at 2000 ppm solution as 4 mg/2 mL of 9 acetone:1 tap water. 50 μL of the 2000 ppm (equivalent to 50 μg/cm^2 dose on diet surface area) test solution was pipetted upon the surface of 1 mL of lepidopteran diet (Southland Multi-Species Lepidopteran Diet) contained in each of eight wells per insect species (one well=1 replication). A second-instar corn earworm and beet armyworm was placed upon the treated diet in each well once the solvent had air-dried. Trays containing the treated diet and larvae were covered and then held in a growth chamber at 25° C., 50-55% RH, and 16 hr light:8 hr dark for 5 days. Observation were conducted 5 days after treatment and infestation. The number of dead insects of 8 per species per treatment was then determined and the results are given in Table 2 as a percent control at a dose of […].

The subject of experiment [2] is Corn Earworm (Helicoverpa zea). As to the kind of experiment: Insecticidal diet-surface test for corn earworm. It is filed as in vivo. Particulars: 120 h, read-out: HELIZE AVG % Mortality (50 μg/cm^2). On the procedure: as §1, §2, §3
The mark [3] stands for this setting: second-instar larvae on treated diet, 50 μg/cm^2 on diet surface, 5 days after treatment, 8 insects per treatment.

Like-named read-outs stand apart in the source and are kept apart here.

On to `O=C(Nc1ccc(C(F)(F)F)cc1)Nc1nc(OCC(F)(F)F)cc(OCC(F)(F)F)n1` [Compound 1, N′-[4,6-bis(2,2,2-trifluoroethoxy)pyrimidin-2-yl]-N-[4-(trifluoro-methyl)phenyl]urea], for which the mortality at 50 µg/cm2 in experiment [1] and in experiment [2] (setting [3]) was 100% throughout.
With `O=C(Nc1ccc(C(F)(F)F)cc1)Nc1nc(OCC(F)F)cc(OCC(F)F)n1` [Compound 2], the mortality at 50 µg/cm2 in experiment [1] and in experiment [2] (setting [3]) was 100% in each case.
On to `O=C(Nc1ccc(OC(F)(F)F)cc1)Nc1nc(OCC(F)(F)F)cc(OCC(F)(F)F)n1` [Compound 3, N-(4-trifluoromethoxyphenyl)-N′-[4,6-(2,2,2-trifluoroethoxy)pyrimidin-2-yl]urea], for which the mortality at 50 µg/cm2 in experiment [1] and in experiment [2] (setting [3]) was 100% each time.
In the case of `N#Cc1ccc(NC(=O)Nc2nc(OCC(F)(F)F)cc(OCC(F)(F)F)n2)cc1` [Compound 4], the mortality at 50 µg/cm2 stood at 0% in experiment [1] and 100% in experiment [2] (setting [3]).
`O=C(Nc1ccc(Cl)c(Cl)c1)Nc1nc(OCC(F)(F)F)cc(OCC(F)(F)F)n1` [Compound 5]: the mortality at 50 µg/cm2 in experiment [1] worked out at 25%; in experiment [2] (setting [3]), 50%.
The like results for `O=C(Nc1ccc(C(F)(F)F)cc1)Nc1nc(OCC(F)(F)F)cc(SCC(F)(F)F)n1` [Compound 6] were, in that order, 0% and 63%.
The like results for `CN(C(=O)Nc1nc(OCC(F)(F)F)cc(OCC(F)(F)F)n1)c1ccc(OC(F)(F)F)cc1` [Compound 7, N′-[4,6-bis(2,2,2-trifluoroethoxy)pyrimidin-2-yl]-N-methyl-N-[4-(trifluoromethoxy)phenyl]urea] were, in that order, 100% and 100%.
Taken in the same sequence, the figures for `O=C(NNc1ccc(Cl)cc1)Nc1nc(OCC(F)(F)F)cc(OCC(F)(F)F)n1` [Compound 9] were 100% and 88%.
Regarding `CN(C(=O)Nc1ccc(OC(F)(F)F)cc1)c1nc(OCC(F)(F)F)cc(OCC(F)(F)F)n1` [Compound 10], the mortality at 50 µg/cm2 in experiment [1] was 100%; in experiment [2] (setting [3]) it was 0%.
The like results for `CN(C(=O)N(C)c1nc(OCC(F)(F)F)cc(OCC(F)(F)F)n1)c1ccc(OC(F)(F)F)cc1` [Compound 11, N-[4,6-bis(2,2,2-trifluoroethoxy)pyrimidin-2-yl]-N,N′-dimethyl-N-[4-(trifluoromethoxy)phenyl]urea] were, in that order, 100% and 100%.
The like results for `CN(C(=O)N(C)c1nc(OCC(F)(F)F)cc(OCC(F)(F)F)n1)c1ccc(C(F)(F)F)cc1` [Compound 12] were, in that order, 100% and 100%.
Taken in the same sequence, the figures for `CC(=O)OCN(C(=O)Nc1ccc(C(F)(F)F)cc1)c1nc(OCC(F)(F)F)cc(OCC(F)(F)F)n1` [Compound 13] were 100% and 100%.
`O=C(Nc1ccc(OC(F)(F)C(F)F)cc1)Nc1nc(OCC(F)(F)F)cc(OCC(F)(F)F)n1` [Compound 14]: the mortality at 50 µg/cm2 in experiment [1] and in experiment [2] (setting [3]) was 100% each time.
Regarding `O=C(Nc1ccc(OCC(F)F)cc1)Nc1nc(OCC(F)(F)F)cc(OCC(F)(F)F)n1` [Compound 15], the mortality at 50 µg/cm2 worked out at 75% in experiment [1] and 50% in experiment [2] (setting [3]).
Taken in the same sequence, the figures for `O=C(Nc1ccc(OC(F)=C(Cl)Cl)cc1)Nc1nc(OCC(F)(F)F)cc(OCC(F)(F)F)n1` [Compound 16] were 100% and 0%.
The like results for `CC(Oc1ccc(NC(=O)Nc2nc(OCC(F)(F)F)cc(OCC(F)(F)F)n2)cc1)C(F)(F)F` (stereo not drawn) [Compound 17] were, in that order, 100% and 0%.
With `CCOCN(C(=O)Nc1ccc(C(F)(F)F)cc1)c1nc(OCC(F)(F)F)cc(OCC(F)(F)F)n1` [Compound 18], the mortality at 50 µg/cm2 in experiment [1] and in experiment [2] (setting [3]) was 100% in each case.
On to `O=C(Nc1ccc(C(F)(F)F)cc1)N(COCc1ccccc1)c1nc(OCC(F)(F)F)cc(OCC(F)(F)F)n1` [Compound 19, N-Benzyloxymethyl-N-[4,6-bis-(2,2,2-trifluoroethoxy)pyrimidin-2-yl]-N′-[(4-trifluoromethyl)phenyl]urea], for which the mortality at 50 µg/cm2 in experiment [1] and in experiment [2] (setting [3]) was 100% throughout.
As for `O=C(Nc1ccc(Cl)cc1)Nc1nc(OCC(F)(F)F)cc(OCC(F)(F)F)n1` [Compound 20], the mortality at 50 µg/cm2 in experiment [1] and in experiment [2] (setting [3]) was 100% in each case.
`CN(C(=O)Nc1nc(OCC(F)(F)F)cc(OCC(F)(F)F)n1)c1ccc(Cl)cc1` [Compound 21]: the mortality at 50 µg/cm2 in experiment [1] and in experiment [2] (setting [3]) was 100% in each case.
Take `O=C(Nc1ccc(Br)cc1)Nc1nc(OCC(F)(F)F)cc(OCC(F)(F)F)n1` [Compound 22]: the mortality at 50 µg/cm2 in experiment [1] and in experiment [2] (setting [3]) was 100% each time.
In the case of `O=C(Nc1ccc(C(F)(F)F)nc1)Nc1nc(OCC(F)(F)F)cc(OCC(F)(F)F)n1` [Compound 24], the mortality at 50 µg/cm2 in experiment [1] and in experiment [2] (setting [3]) was 100% throughout.
For the compound `CCCN(C(=O)Nc1nc(OCC(F)(F)F)cc(OCC(F)(F)F)n1)c1ccc(OC(F)(F)F)cc1` [Compound 26], the mortality at 50 µg/cm2 in experiment [1] and in experiment [2] (setting [3]) was 100% each time.
Turning to `CCN(C(=O)Nc1nc(OCC(F)(F)F)cc(OCC(F)(F)F)n1)c1ccc(OC(F)(F)F)cc1` [Compound 27], the mortality at 50 µg/cm2 in experiment [1] and in experiment [2] (setting [3]) was 100% throughout.
Consider `COC(=O)CN(C(=O)Nc1nc(OCC(F)(F)F)cc(OCC(F)(F)F)n1)c1ccc(OC(F)(F)F)cc1` [Compound 28], for which the mortality at 50 µg/cm2 in experiment [1] and in experiment [2] (setting [3]) was 100% each time.
As to `CN(C(=O)Nc1nc(OCC(F)(F)F)cc(OCC(F)(F)F)n1)c1ccc(OC(F)(F)C(F)F)cc1` [Compound 29], the mortality at 50 µg/cm2 in experiment [1] and in experiment [2] (setting [3]) was 100% throughout.
Consider `O=C1CN(c2ccc(OC(F)(F)F)cc2)C(=O)N1c1nc(OCC(F)(F)F)cc(OCC(F)(F)F)n1` [Compound 30], for which the mortality at 50 µg/cm2 came to 88% in experiment [1] and 100% in experiment [2] (setting [3]).
The like results for `CN(C(=O)Nc1nc(OCC(F)(F)F)cc(OCC(F)(F)F)n1)c1ccc(C(F)(F)F)cc1` [Compound 31] were, in that order, 100% and 100%.
Taken in the same sequence, the figures for `O=C(O)CN(C(=O)Nc1nc(OCC(F)(F)F)cc(OCC(F)(F)F)n1)c1ccc(OC(F)(F)F)cc1` [Compound 32] were 100% and 100%.
Taken in the same sequence, the figures for `CCOCN(C(=O)N(COCc1ccccc1)c1nc(OCC(F)(F)F)cc(OCC(F)(F)F)n1)c1ccc(C(F)(F)F)cc1` [Compound 33, N-Benzyloxymethyl-N-[4,6-bis(2,2,2-trifluoroethoxy)pyrimidin-2-yl]-N′-ethoxymethyl-N′-[4-(trifluoromethyl)phenyl]urea] were 100% and 100%.
For the compound `CCOCN(C(=O)Nc1nc(OCC(F)(F)F)cc(OCC(F)(F)F)n1)c1ccc(C(F)(F)F)cc1` [Compound 34, N′-[4,6-Bis(2,2,2-trifluoroethoxy)pyrimidin-2-yl]-N-ethoxymethyl-N-(4-trifluoromethylphenyl)urea], the mortality at 50 µg/cm2 in experiment [1] and in experiment [2] (setting [3]) was 100% throughout.
For `CCOC(=O)N(C(=O)Nc1nc(OCC(F)(F)F)cc(OCC(F)(F)F)n1)c1ccc(C(F)(F)F)cc1` [Compound 35], the mortality at 50 µg/cm2 in experiment [1] and in experiment [2] was 100% in each case.
Take `CCOC(=O)N(C(=O)N(COCc1ccccc1)c1nc(OCC(F)(F)F)cc(OCC(F)(F)F)n1)c1ccc(C(F)(F)F)cc1` [Compound 36]: the mortality at 50 µg/cm2 in experiment [1] and in experiment [2] was 100% throughout.
With `COCN(C(=O)N(COCc1ccccc1)c1nc(OCC(F)(F)F)cc(OCC(F)(F)F)n1)c1ccc(C(F)(F)F)cc1` [Compound 37], the mortality at 50 µg/cm2 in experiment [1] and in experiment [2] (setting [3]) was 100% each time.
`CC(=O)OCN(C(=O)Nc1nc(OCC(F)(F)F)cc(OCC(F)(F)F)n1)c1ccc(C(F)(F)F)cc1` [Compound 38]: the mortality at 50 µg/cm2 in experiment [1] and in experiment [2] (setting [3]) was 100% in each case.
As for `COCN(C(=O)Nc1nc(OCC(F)(F)F)cc(OCC(F)(F)F)n1)c1ccc(C(F)(F)F)cc1` [Compound 39], the mortality at 50 µg/cm2 in experiment [1] and in experiment [2] (setting [3]) was 100% each time.
Consider `CCN(C(=O)Nc1nc(OCC(F)(F)F)cc(OCC(F)(F)F)n1)c1ccc(Br)cc1` [Compound 40], for which the mortality at 50 µg/cm2 in experiment [1] and in experiment [2] (setting [3]) was 100% throughout.
Take `CN(C(=O)Nc1nc(OCC(F)(F)F)cc(OCC(F)(F)F)n1)c1ccc(Br)cc1` [Compound 41, N′-[4,6-bis(2,2,2-trifluoroethoxy)pyrimidin-2-yl]-N-methyl-N-(4-bromophenyl)urea]: the mortality at 50 µg/cm2 in experiment [1] and in experiment [2] (setting [3]) was 100% throughout.
`CN(C(=O)Nc1nc(OCC(F)(F)F)cc(OCC(F)(F)F)n1)c1ccc(Br)nc1` [Compound 42]: the mortality at 50 µg/cm2 in experiment [1] and in experiment [2] (setting [3]) was 100% throughout.
